The results in this text go back to US8835644B2, “Broad spectrum benzothiophene-nitrothiazolide and other antimicrobials” (University of Virginia Patent Foundation, priority 2009, dated 2014).

As a reminder, the MIC is the lowest concentration that inhibits growth of the organism.

Converted amounts (≈) assume the structure as drawn. Where two headings read alike, the source gives them in different places.

Test [1] relates to H. pylori. Description: MIC testing by broth dilution, H. pylori. As to conditions: read-out: MIC H. pylori. Type of test: cell-based, Helicobacter pylori. The method, then: (§1) A standard broth dilution protocol was used in 96 well microplates containing a standard dilution of the microorganism to be tested in 100 microliters of the appropriate medium. Appropriate medium: E. coli, LB medium; Staphylococcus strains, Trypticase Soy; and for H. pylori and C. jejuni, Brain Heart Infusion. The compounds to be tested were set at 32 μg/ml in 200 microliters in well one and then serially diluted to provide a range from 32 to 0.06. The wells were scored visually at 24 h. The well where there was no growth was recorded as the MIC. Clostridium difficile was tested by agar diffusion and disk diffusion (Kirby Bower) methods under anaerobic conditions on Wilkins Chalgrin agar. In these assays, zone of inhibited growth was measured and compared by relative ratio to the zone recorded for NTZ.
(§2) Representative compounds of the invention were tested in a series of assays against a series of organisms as described above. […] The organisms tested include, C. difficile, H. pylori, C. jejuni, MRSA, S. epidermidis, and E. coli. S. epidermidis and E. coli were tested in the plank and biofilm assay. A disk diffusion assay was also used for C. difficile. Direct PFOR enzyme assays were also performed. All analogues and derivatives were not tested on every organism in every type of assay (the “-” in each table means that it was not tested).
On the technique in general: Broth dilution looks for growth in wells or tubes with falling amounts of substance.

The test system of test [2] is C. jejuni. Description: MIC testing by broth dilution, C. jejuni. The note with it: read-out: MIC C. jejuni. The class given is cell-based, Campylobacter jejuni. The method, then: as §1, §2
Test [3] relates to MRSA. The test is described as follows: MIC testing by broth dilution, MRSA. Type of test: cell-based, Staphylococcus aureus. As to conditions: read-out: MIC MRSA. The method, then: as §1, §2
Test [4] concerns S. epidermidis. Description: MIC testing by broth dilution, S. epidermidis plank. The class given is cell-based, Staphylococcus epidermidis. The note with it: planktonic, read-out: MIC S. epidermidis Plank. The method, then:
as §1, §2

For test [5], the system named is E. coli. The test is described as follows: MIC testing by broth dilution, E. coli plank. The class given is cell-based, Escherichia coli. As to conditions: planktonic, read-out: MIC E. coli Plank. The method, then: as §1, §2

`O=C(Nc1ncc([N+](=O)[O-])s1)c1ccc(-c2ccccc2Cl)o1` [VPC16b1118]: the MIC was determined as 1.4 µM (≈ 0.49 µg/mL) in test [1] (Furan analogues table); 11.4 µM (≈ 3.99 µg/mL) in test [2] (Furan analogues table); 11.4 µM (≈ 3.99 µg/mL) in test [3] (Furan analogues table); 5.7 µM (≈ 1.99 µg/mL) in test [4] (Furan analogues table); 91.5 µM (≈ 32 µg/mL) in test [5] (Furan analogues table).

For `O=C(Nc1ncc([N+](=O)[O-])s1)c1ccc(-c2cccc(Cl)c2)o1` [VPC16b1119], the MIC in test [1] (Furan analogues table) worked out at 1.1 µM (≈ 0.385 µg/mL); in test [2] (Furan analogues table), 22.9 µM (≈ 8.01 µg/mL); in test [3] (Furan analogues table), 91.5 µM (≈ 32 µg/mL); in test [4] (Furan analogues table), 91.5 µM (≈ 32 µg/mL); in test [5] (Furan analogues table), 91.5 µM (≈ 32 µg/mL).

As for `O=C(Nc1ncc([N+](=O)[O-])s1)c1ccc(-c2ccc3c(c2)OCO3)o1` [VPC16b1132], the MIC in test [1] (Furan analogues table) came out at 1.4 µM (≈ 0.503 µg/mL); in test [2] (Furan analogues table) it was 89.1 µM (≈ 32 µg/mL); in test [3] (Furan analogues table) it was 89.1 µM (≈ 32 µg/mL); in test [4] (Furan analogues table), 89.1 µM (≈ 32 µg/mL); in test [5] (Furan analogues table) it was 89.1 µM (≈ 32 µg/mL).

In the case of `COc1ccc(-c2ccc(C(=O)Nc3ncc([N+](=O)[O-])s3)o2)cc1` [VPC16b1139], the MIC is recorded as 1.5 µM (≈ 0.518 µg/mL) in test [1] (Furan analogues table); 92.7 µM (≈ 32 µg/mL) in test [2] (Furan analogues table); 92.7 µM (≈ 32 µg/mL) in test [3] (Furan analogues table); 92.7 µM (≈ 32 µg/mL) in test [4] (Furan analogues table); 92.7 µM (≈ 32 µg/mL) in test [5] (Furan analogues table).

With `O=C(Nc1ncc([N+](=O)[O-])s1)c1ccc(-c2ccoc2)o1` [VPC16b1142], the minimal inhibitory concentration (MIC) in test [1] (Furan analogues table) turned out to be 1.6 µM (≈ 0.488 µg/mL); in test [2] (Furan analogues table), 13.1 µM (≈ 4 µg/mL); in test [3] (Furan analogues table), 26.2 µM (≈ 8 µg/mL); in test [4] (Furan analogues table), 13.1 µM (≈ 4 µg/mL); in test [5] (Furan analogues table), 104.8 µM (≈ 32 µg/mL).

For the compound `O=C(Nc1ncc([N+](=O)[O-])s1)c1ccc(-c2cccs2)o1` [VPC16b1145, N-(5-Nitrothiazol-2-yl)-5-(thiophen-2-yl)furan-2-carboxamide], the MIC in test [1] (Helicobacter pylori, Furan analogues table) stood at 1.9 µM (≈ 0.611 µg/mL); in test [2] (Campylobacter jejuni, Furan analogues table) it was 12.5 µM (≈ 4.02 µg/mL); in test [3] (Staphylococcus aureus, MRSA, Furan analogues table), 12.4 µM (≈ 3.98 µg/mL); in test [4] (Staphylococcus epidermidis, Furan analogues table), 12.4 µM (≈ 3.98 µg/mL); in test [5] (Escherichia coli, Furan analogues table) it was 99.6 µM (≈ 32 µg/mL).

For `O=C(Nc1ncc([N+](=O)[O-])s1)c1ccc(-c2ccco2)s1` [VPC16b1148], the MIC turned out to be 7.8 µM (≈ 2.51 µg/mL) in test [1] (Thiophene analogues table); 12.4 µM (≈ 3.98 µg/mL) in test [2] (Thiophene analogues table); 24.9 µM (≈ 8 µg/mL) in test [3] (Thiophene analogues table); 12.4 µM (≈ 3.98 µg/mL) in test [4] (Thiophene analogues table); 99.6 µM (≈ 32 µg/mL) in test [5] (Thiophene analogues table).

As to `O=C(Nc1ncc([N+](=O)[O-])s1)c1ccc(-c2ccsc2)s1` [VPC16b1154], the minimal inhibitory concentration (MIC) in test [1] (Thiophene analogues table) turned out to be 3.0 µM (≈ 1.01 µg/mL); in test [2] (Thiophene analogues table), 94.8 µM (≈ 32 µg/mL); in test [3] (Thiophene analogues table), 94.8 µM (≈ 32 µg/mL); in test [4] (Thiophene analogues table) it was 94.8 µM (≈ 32 µg/mL); in test [5] (Thiophene analogues table), 94.8 µM (≈ 32 µg/mL).

Turning to `Cc1cccc(-c2ccc(C(=O)Nc3ncc([N+](=O)[O-])s3)s2)c1` [VPC16b2011], the MIC is 2.2 µM (≈ 0.76 µg/mL) in test [1] (Thiophene analogues table); 92.6 µM (≈ 32 µg/mL) in test [2] (Thiophene analogues table); 92.6 µM (≈ 32 µg/mL) in test [3] (Thiophene analogues table); 92.6 µM (≈ 32 µg/mL) in test [4] (Thiophene analogues table); 92.6 µM (≈ 32 µg/mL) in test [5] (Thiophene analogues table).

As to `Cc1cccc(-c2ccc(C(=O)Nc3ncc([N+](=O)[O-])s3)o2)c1` [VPC16b2014], the MIC in test [1] (Furan analogues table) came to 2.3 µM (≈ 0.757 µg/mL); in test [2] (Furan analogues table), 97.2 µM (≈ 32 µg/mL); in test [3] (Furan analogues table), 97.2 µM (≈ 32 µg/mL); in test [4] (Furan analogues table), 97.2 µM (≈ 32 µg/mL); in test [5] (Furan analogues table), 97.2 µM (≈ 32 µg/mL).

In the case of `Cc1ccc(-c2ccc(C(=O)Nc3ncc([N+](=O)[O-])s3)o2)cc1` [VPC16b2019], the minimum inhibitory concentration (MIC) in test [1] (Furan analogues table) is reported as 1.5 µM (≈ 0.494 µg/mL); in test [2] (Furan analogues table) it was 97.2 µM (≈ 32 µg/mL); in test [3] (Furan analogues table) it was 97.2 µM (≈ 32 µg/mL); in test [4] (Furan analogues table), 97.2 µM (≈ 32 µg/mL); in test [5] (Furan analogues table), 97.2 µM (≈ 32 µg/mL).

On to `O=C(Nc1ncc([N+](=O)[O-])s1)c1ccc(-c2cccs2)s1` [VPC16b2021], for which the minimal inhibitory concentration (MIC) in test [1] (Thiophene analogues table) is reported as 3.0 µM (≈ 1.01 µg/mL); in test [2] (Thiophene analogues table), 94.8 µM (≈ 32 µg/mL); in test [3] (Thiophene analogues table) it was 94.8 µM (≈ 32 µg/mL); in test [4] (Thiophene analogues table) it was 94.8 µM (≈ 32 µg/mL); in test [5] (Thiophene analogues table), 94.8 µM (≈ 32 µg/mL).

In the case of `O=C(Nc1ncc([N+](=O)[O-])s1)c1ccc(-c2ccsc2)o1` [VPC16b2022], the MIC is reported as 6.2 µM (≈ 1.99 µg/mL) in test [1] (Furan analogues table); 99.6 µM (≈ 32 µg/mL) in test [2] (Furan analogues table); 99.6 µM (≈ 32 µg/mL) in test [3] (Furan analogues table); 99.6 µM (≈ 32 µg/mL) in test [4] (Furan analogues table); 99.6 µM (≈ 32 µg/mL) in test [5] (Furan analogues table).

Regarding `O=C(Nc1ncc([N+](=O)[O-])s1)c1ccc(-c2ccccc2)o1` [VPC16c1020], the MIC is reported as 2.4 µM (≈ 0.757 µg/mL) in test [1] (Furan analogues table); 101.5 µM (≈ 32 µg/mL) in test [2] (Furan analogues table); 101.5 µM (≈ 32 µg/mL) in test [3] (Furan analogues table); 101.5 µM (≈ 32 µg/mL) in test [4] (Furan analogues table); 101.5 µM (≈ 32 µg/mL) in test [5] (Furan analogues table).
